# Patent US7879542B2, “Methylated gene biomarkers for detecting cancer” (The Johns Hopkins University, priority 2003, dated 2011)
# Experiments:
# SPARC mRNA expression = test: 5Aza-dC / TSA treatment of pancreatic cancer cell lines harboring SPARC methylation, SPARC mRNA by RT-PCR; type: cell-based, human
# Description: (§1) Four μg of total RNA was reverse-transcribed using Superscript II (Invitrogen). The SPARC RT-PCR reaction was performed under the condition as follow: 95° C. for 5 minutes; then 28 cycles of 95° C. for 20 seconds, 63° C. for 20 seconds, and 72° C. for 20 seconds; and a final extension of 4 minutes at 72° C. Primer sequences were 5′-AAGATCCATGAGAATGAGAAG-3′ (forward) (SEQ ID NO: 11) and 5′-AAA AGC GGG TGG TGC AAT G-3′ (reverse) (SEQ ID NO: 12). To check the integrity of mRNA, glyceraldehyde-3-phosphate dehydrogenase (GAPDH) was also amplified in the same PCR condition. For semiquantitative analysis, the RT-PCR was performed with primers for SPARC and GAPDH in duplex reactions, and range of linear amplification for both genes was examined with serial PCR cycles to determine the optimal cycle. The relative intensity of SPARC mRNA expression was then corrected for variable RNA recovery using the corresponding GAPDH mRNA measurement as a surrogate for total mRNA.
# Eight pancreatic cancer cell lines (AsPC1, BxPC3, Capan2, CFPAC1, Hs766T, MiaPaCa2, PL3, and PL12) were treated with 5Aza-dC. Cells in log phase growth were seeded in T-75 culture flasks. After overnight incubation, the cells were exposed continuously to 5Aza-dC (1 μM) for 4 days, with a change of drug and culture medium every 24 hours.
# To confirm that DNA methylation is a mechanism for the silencing of SPARC, we treated 8 pancreatic cancer cell lines harboring SPARC methylation with the demethylating agent 5Aza-dC.
# [1] = system: SPARC gene expression in pancreatic cancer cells; details: pancreatic cancer cells treated with 5Aza-dC; Sato et al., manuscript submitted; cited from earlier work
# [2] = system: SPARC mRNA expression in fibroblasts (panc-f3); test: Effect of TGF-β on SPARC expression in fibroblasts (semiquantitative RT-PCR); type: cell-based, human; details: TGF-β 5 ng/ml, 24 hours
# Description: as §1
# (§2) Because several growth factors such as TGF-β are known to induce the SPARC expression in fibroblasts (Wrana et al., 1991; Reed et al., 1994), and because TGF-β is one of the major secreted proteins highly expressed by pancreatic cancer cells (Friess et al., 1993), we examined the effect of TGF-β on SPARC expression in fibroblasts (panc-f3). […]
# [3] = system: SPARC mRNA expression in Panc1; test: Effect of TGF-β on SPARC mRNA expression in pancreatic cancer cell lines; type: cell-based, human; details: TGF-β 5 ng/ml, data not shown
# Description: as §1, §2
# [4] = system: SPARC mRNA expression in AsPC1; test: as above; type: cell-based, human; details: TGF-β 5 ng/ml, data not shown
# Description: as §1, §2
# Panc1 cells = test: Effect of exogenous SPARC on proliferation of pancreatic cancer cells (cell count by hemacytometer); type: cell-based, human; details: SPARC 10 μg/ml, 72 hours
# Description: (§3) We treated two pancreatic cancer cell lines (AsPC1 and Panc1) with exogenous SPARC. Cells in log phase growth were seeded at a density of 1×10^4 cells/well in 24-well plates. After overnight incubation, cells were treated with or without human platelet SPARC protein (10 μg/ml) for 72 hours, and the number of cells were counted by hemacytometer in three independent wells.
# (§4) The effect of exogenous SPARC protein on growth of pancreatic cancer cells in vitro was also examined. We treated two pancreatic cancer cell lines (AsPC1 and Panc1) with purified SPARC protein and counted the number of cells after 72 hours.
# AsPC1 cells = test: as above; type: cell-based, human; details: SPARC 10 μg/ml, 72 hours
# Description: as §3, §4
molecule,measurement,setting,value
"Nc1ncn([C@H]2C[C@H](O)[C@@H](CO)O2)c(=O)n1 [5Aza-dC, 5-Aza-2′-deoxycytidine]",SPARC mRNA expression after treatment (RT-PCR),"SPARC mRNA expression; 8 pancreatic cancer cell lines harboring SPARC methylation, 5Aza-dC 1 μM, 4 days",restored in 7 of the 8 cell lines
same,SPARC mRNA expression after treatment (RT-PCR),SPARC mRNA expression; Hs766T cell line,did not restore the SPARC expression
same,induction of SPARC gene expression (oligonucleotide microarrays),[1],≥ 5 fold
"CC(/C=C/C(=O)NO)=C\[C@@H](C)C(=O)c1ccc(N(C)C)cc1 [trichostatin A (TSA), trichostatin A]",SPARC mRNA expression after treatment (RT-PCR),SPARC mRNA expression; Hs766T cell line,did not induce the SPARC expression
TGF-β: human recombinant transforming growth factor (TGF)-β1 purchased from Sigma,increase in SPARC mRNA expression,[2],"~3,3 fold"
same,increase in SPARC mRNA expression,[3],"~1,5 fold"
same,SPARC transcript after treatment,[4],remained undetectable
"SPARC: Purified human platelet SPARC protein purchased from Calbiochem (protein, UniProt P09486 18-303, looked up) SPARC: APQQEALPDETEVVEETVAEVTEVSVGANPVQVEVGEFDDGAEETEEEVVAENPCQNHHCKHGKVCELDENNTPMCVCQDPTSCPAPIGEFEKVCSNDNKTFDSSCHFFATKCTLEGTKKGHKLHLDYIGPCKYIPPCLDSELTEFPLRMRDWLKNVLVTLYERDEDNNLLTEKQKLRVKKIHENEKRLEAGDHPVELLARDFEKNYNMYIFPVHWQFGQLDQHPIDGYLSHTELAPLRAPLIPMEHCTTRFFETCDLDNDKYIALDEWAGCFGIKQKDIDKDLVI",growth inhibition,Panc1 cells; P<0.0001,~30%
same,cell number,"Panc1 cells; mean±SD, untreated 5.0±0.4",3.5±0.4 ×10^4 cells
same,growth suppression,AsPC1 cells; P=0.001,~27%
same,cell number,"AsPC1 cells; mean±SD, untreated 5.8±0.8",4.2±0.3 ×10^4 cells
